The subject of one test is Keratin K14. Nature of the test: Keratinocyte marker Keratin K14 in human epidermal keratinocytes (Test Example 22). The format is cell-based. The settings on record: for Keratin K14 induction with TLR4/MD2 added: plus TLR4/MD2 1 μg/ml; for cells with high expression of Keratin K14 (immunostaining intensity): stimulated as in Test Example 1. The protocol: (§1) Human epidermal keratinocytes were stimulated in the same manner as in Test Example 1, except for using the 4mer or the L3mer as the hyaluronic acid fragment, and further adding TLR4/MD2 to a final concentration of 1 μg/ml.
The cells in each well were stained with anti keratin K14 antibody, and the immunostaining intensity was measured with an Array Scan scanning device (made by Thermo Scientific). Keratin K14 is a marker of basal layer keratinocytes.

Test [1] relates to stem cells of human epidermal keratinocytes. Nature of the test: Count of small dividing cells with high sirtuin protein expression, with or without TLR4/MD2 (Test Examples 4-6). The settings on record: for sirtuin protein expression in stem cells (count of small dividing cells with high sirtuin expression) vs negative control: 24 hours; for sirtuin induction in stem cells upon addition of TLR4/MD2: 10 ng/ml fragment plus 1 g/ml of TLR4/MD2. The format is cell-based. The protocol: A test of sirtuin induction in human epidermal keratinocytes was conducted in the same manner as in Test Example 1.
The results are shown as average count within the observed visual field.
In the meantime, similar observations were made in relation to human epidermal keratinocytes cultured in a culture broth to which 10 ng/ml of hyaluronic acid fragment (4mer) and 1 g/ml of TLR4/MD2 (TLR4 (toll-like receptor 4) protein produced by genetic recombination techniques, made by R&D Systems Inc.) were added.
A test similar to Test Example 5 was carried out, using chemically synthesized three-unit size hyaluronic acid fragments (L3mer) in place of hyaluronic acid fragment (4mer).

For test [2], the system named is human oral epithelial cells (Ca9-22 cells). Nature of the test: Hydrogen peroxide induced aging of human oral epithelial cells, MTS assay (Test Example 19). The format is cell-based. The settings on record: hydrogen peroxide 1 μM 15 min, then 100 ng/ml for 3 hours. Here is the method: It was investigated whether the process, in which mitochondrial function of human oral epithelial cells (Ca9-22 cells) declines when treated with hydrogen peroxide, is affected by treatment with the hyaluronic acid fragment. Specifically, the following test was performed.
Using a DMEM culture medium (made by Wako Pure Chemical Industries, Ltd.), human oral epithelial cells (Ca9-22 cells) were cultured by usual methods at 37° C. under 5% CO2. Hydrogen peroxide was added to the culture medium to a final concentration of 1 μM to bring about stimulation for a 15-minute period, and the culture broth was then transferred to DMEM culture medium containing no hyaluronic acid fragments; to DMEM culture medium containing hyaluronic acid fragment (L3mer) in a final concentration of 100 ng/ml; to DMEM culture medium containing hyaluronic acid fragment (4mer) in a final concentration of 100 ng/ml; or to DMEM culture medium containing 900 kDa hyaluronic acid in a final concentration of 100 ng/ml, and cultured for 3 hours.
(§2) After 3 hours had passed, an MTS assay was performed. On the basis of the action, in which MTS is converted to formazan by dehydrogenation in the mitochondria of the cell, OD 490 nm was measured to measure mitochondrial function.
(In general: Tetrazolium dyes change colour on reduction, which living cells bring about.)

The next test deals with liver of aged rat. Nature of the test: Liver of aged rat preserved in organ preservation solution, microscopy and bleb count (Test Example 14). To be noted: for sinusoidal constriction and appearance of blebs in liver tissue slice: 100 ng/ml in organ preservation solution, SD rats aged 24 months. Here is the method: The effect of action of the hyaluronic acid fragment on the liver of aged rat was investigated. The following test solutions were prepared.
(Test Solutions) • Organ preservation solution (University of Wisconsin solution: the standard solution used for organ preservation) • The above organ preservation solution, into which hyaluronic acid fragment (4mer) was dissolved to a final concentration of 100 ng/ml • The above organ preservation solution, into which hyaluronic acid fragment (L3mer) was dissolved to a final concentration of 100 ng/ml • The above organ preservation solution, into which hyaluronic acid fragment (L3mer) was dissolved to a final concentration of 100 ng/ml, then dissolving TLR4/MD2 into the above organ preservation solution, to a final concentration of 10 μg/ml.
SD rats aged 24 months (aged rats) were injected with the test solutions from the hepatic portal, and after perfusion of 7.5 ml, were preserved for six hours in the same solution at 37° C. Slices were prepared from blocks prepared by freezing of the livers embedded in OCT compound, and were subjected to microscope examination.
Prior to preservation, distinct sinusoids could be observed. […] Blebs (bubbles) that appear in ischemic liver tissue arise as a result of an activation of Ca ion-dependent proteolytic enzymes and a disorder of the cytoskeletal system, in which lowered ATP levels due to ischemia lead to effusion of Ca ions from the mitochondria to the cellular cytoplasm. In the course of passing through these changes, the liver cells experience cell death. Such changes have been confirmed to occur in clinical conditions such as pharmaceutical toxicity, aging, and the like, and in concanavalin A-induced liver damage.

For a further test, the system named is filaggrin. Nature of the test: Keratinocyte marker Filaggrin in human epidermal keratinocytes (Test Example 23). The format is cell-based. The settings on record: for filaggrin induction with TLR4/MD2 added: plus TLR4/MD2 1 μg/ml; for cells with high expression of filaggrin (immunostaining intensity): stimulated as in Test Example 1. The protocol: as §1
The cells in each well were stained with the anti filaggrin antibody, and the immunostaining intensity was measured with an Array Scan scanning device (made by Thermo Scientific). Filaggrin, which is produced by granular layer keratinocytes, is a marker of mature keratinocytes.

Test [3] deals with human large intestine epithelial cells (HT29 cells). Nature of the test: Hydrogen peroxide induced aging of human large intestine epithelial cells, MTS assay (Test Examples 16-18). The format is cell-based. To be noted: for suppression of cellular aging (MTS value, OD 490 nm): hydrogen peroxide 10 μM 15 min; for suppression of cellular aging with TLR4/MD2 added (MTS): hydrogen peroxide 10 μM, 100 ng/ml plus TLR4/MD2 10 μg/ml, 3 hours. Here is the method: Human large intestine epithelial cells (HT29 cells) were experienced cellular aging (decline in mitochondrial activity due to injury, or a drop in the MTS value once cell death occurs) due to stimulation by the hydrogen peroxide when treated with hydrogen peroxide, and it was investigated whether this process is affected by treatment with the hyaluronic acid fragment. Specifically, the following test was performed.
Using a DMEM culture medium (made by Wako Pure Chemical Industries, Ltd.), human large intestine epithelial cells (HT29 cells) were cultured by usual methods at 37° C. under 5% CO2. Hydrogen peroxide was added to the culture medium to a final concentration of 10 μM to bring about stimulation for a 15-minute period, and the culture broth was then transferred to DMEM culture medium containing no hyaluronic acid fragments; to DMEM culture medium containing hyaluronic acid fragment (4mer) in a final concentration of 100 ng/ml; or to DMEM culture medium containing the hyaluronic acid fragment (4mer) plus TLR4/MD2 in a final concentration of 10 μg/ml, and cultured for 3 hours.
as §2
Using hyaluronic acid fragment (4mer), hyaluronic acid fragment (L4mer) and hyaluronic acid fragment (L3mer) as test substances, tests similar to those of Test Example 16 were performed, except that the culture time following transfer to the culture medium containing the test substance was one hour.
Tests similar to those of Test Example 16 were performed, except for using hyaluronic acid fragment (L4mer), and hyaluronic acid fragment (L3mer) as test substances.

Setting [4] is: then test substance for one hour.

Regarding `CC(=O)N[C@H]1[C@H](O[C@H]2[C@H](O)[C@@H](O)[C@H](O[C@H]3[C@H](O)[C@@H](CO)OC(O)[C@@H]3NC(C)=O)O[C@@H]2C(=O)O)O[C@H](CO)[C@@H](O)[C@@H]1O[C@@H]1O[C@H](C(=O)O)[C@@H](O)[C@H](O)[C@H]1O` (some centres unmarked) [4mer, GlcA(-GlcNAc-GlcA)1-GlcNAc], the “Keratin K14 induction with TLR4/MD2 added” value in the test with Keratin K14 was “inhibited by addition of TLR4/MD2”. Moreover, in the test with Keratin K14, the “cells with high expression of Keratin K14 (immunostaining intensity)” value is given as “cells with high expression of Keratin K14 increased”. Also, the “sirtuin protein expression in stem cells (count of small dividing cells with high sirtuin expression) vs negative control” value in test [1] (0.01 ng/ml) and in test [1] (10 ng/ml) was “markedly promoted” each time. Moreover, the “sirtuin induction in stem cells upon addition of TLR4/MD2” value in test [1] is reported as “completely inhibited”. Moreover, the “suppression of cellular aging (MTS, mitochondrial function)” value in test [2] is reported as “suppress cellular aging”. Also, the “sinusoidal constriction and appearance of blebs in liver tissue slice” value in the test on liver of aged rat (six hours at 37° C.) is “sinusoidal constriction and appearance of blebs were suppressed”. Moreover, in the test on filaggrin, the “filaggrin induction with TLR4/MD2 added” value is reported as “inhibited by addition of TLR4/MD2”. In the test with filaggrin, the “cells with high expression of filaggrin (immunostaining intensity)” value is reported as “cells with high expression of filaggrin increased”. Besides, the “suppression of cellular aging (MTS value, OD 490 nm)” value (from here on “suppression … (MTS value, OD 490 nm)”) was “suppressed cellular aging” in test [3] (then 100 ng/ml for 3 hours) and “showed effect in suppressing cellular aging” in test [3] (setting [4]). In addition, the “suppression of cellular aging with TLR4/MD2 added (MTS)” value in test [3] was “inhibited by addition of TLR4/MD2”.

As for `CC(=O)NC1C(O[C@@H]2OC(C(=O)O)[C@@H](O)C(O)C2O)[C@H](O)C(CO)O[C@H]1O[C@@H]1C(C(=O)O)O[C@@H](OCCCN=[N+]=[N-])C(O)C1O` (some centres unmarked) [L3mer], in the test with Keratin K14, the “Keratin K14 induction with TLR4/MD2 added” value is “inhibited by addition of TLR4/MD2” and the “cells with high expression of Keratin K14 (immunostaining intensity)” value is “cells with high expression of Keratin K14 increased”. For the same compound, in test [1], the “sirtuin induction in stem cells upon addition of TLR4/MD2” value is reported as “substantially completely inhibited”. Besides, in test [1] (10 ng/ml), the “sirtuin protein expression in stem cells (count of small dividing cells with high sirtuin expression) vs negative control” value is reported as “give rise to sirtuin induction”. In addition, in test [2], the “suppression of cellular aging (MTS, mitochondrial function)” value was “suppress cellular aging”. In addition, the “sinusoidal constriction and appearance of blebs in liver tissue slice” value with liver of aged rat (six hours at 37° C.) was “sinusoidal constriction and appearance of blebs were suppressed”. Also, the “effect in suppressing the appearance of blebs with TLR4/MD2 added (bleb count)” value with liver of aged rat (100 ng/ml plus TLR4/MD2 10 μg/ml) is recorded as “reduced by the addition of TLR4/MD2”. Also, the “condition of liver tissue slice with TLR4/MD2 added” value in the test with liver of aged rat (100 ng/ml plus TLR4/MD2 10 μg/ml, six hours at 37° C.) is “numerous blebs (bubbles) appeared”. Besides, in the test with liver of aged rat (100 ng/ml, comparison L3mer vs 4mer), the “effect of suppressing the appearance of blebs (bleb count per unit surface area)” value is “higher with L3mer treatment than with 4mer treatment”. For the same compound, in the test with filaggrin, the “filaggrin induction with TLR4/MD2 added” value is reported as “inhibited by addition of TLR4/MD2” and the “cells with high expression of filaggrin (immunostaining intensity)” value is “cells with high expression of filaggrin increased”. For the same compound, the “suppression … (MTS value, OD 490 nm)” value in test [3] (then 100 ng/ml for 3 hours) is “showed effect in suppressing cellular aging”. The “suppression … (MTS value, OD 490 nm)” value in test [3] (setting [4]) is on record as “showed effect in suppressing cellular aging”. Moreover, the “suppression of cellular aging with TLR4/MD2 added (MTS)” value in test [3] is reported as “inhibited by the addition of TLR4/MD2”.
